Patent publication EP4458916A1, “PHOTOCATALYTICALLY ACTIVE COATING COMPOSITION, METHOD FOR THE PRODUCTION THEREOF AND USE THEREOF” (priority 2023, dated 2024)
Like-named read-outs stand apart in the source and are kept apart here.

Columns and labels:
[1] = tested on: verschiedene Bakterienstämme; assay: Bacteria test following modified ISO 22196, photodynamic effect of a SolGel coating on different bacterial strains; type: cell-based; settings: Rezeptur 5 coating on Melamin, 2 mM, 4 h
Source text: (§1) Die Bestimmung der antimikrobiellen Aktivität erfolgte nach einer modifizierten Version der ISO 22196:2011-08 ("Messung von antibakterieller Aktivität auf Kunststoff- und anderen porenfreien Oberflächen", Ausgabedatum: 2011-08).
(§2) Bei der Testdurchführung wurde ein dünner Flüssigkeitsfilm, in dem die Bakterien enthalten sind (1,25 x 10^4 /cm2), direkt auf die Probekörper (2,5 cm x 2,5 cm) aufgebracht. Direkt nach Beimpfung wurden von der Nullprobe die Bakterien von den Probekörperoberflächen mittels Ultraschall und Vortexen abgelöst und die Keimzahl (KBE (engl. CFU), Kolonie-bildende Einheit) bestimmt (t0-Wert). Ein weiterer Satz Nullproben und antimikrobiell ausgestatteter Proben wurden mit Bakterien im Flüssigkeitsfilm bei Raumtemperatur inkubiert. Nach 4 h wurden überlebende Bakterien von den Probekörperoberflächen mittels Ultraschall und Vortexen abgelöst und die Keimzahl bestimmt (t4-Wert).
(§3) Im Unterschied zu der in der ISO 22196:2011-08 beschriebenen Methode wurde das Inokulum nicht mit einer Folie abgedeckt und die Inkubationszeit von 24 auf 4 Stunden reduziert. Weiterhin wurden die Platten der Proben 3 und 4 mit Licht mit einer Intensität von 300 µW/cm2 belichtet.
Die Ergebnisse sind Tabelle 53 dargestellt. Tabelle 53: Photodynamische Wirkung einer SolGel Beschichtung gegen verschiedene Bakterienstämme

[2] = tested on: verschiedene Virenstämme; assay: Virus test following ISO 21702, photodynamic effect of a SolGel coating on different virus strains; settings: read-out: Log10 Reduktion Probe
[3] = tested on: S. enterica; assay: Bacteria test following modified ISO 22196, photodynamic effect of different photocatalysts in the SolGel coating on S. enterica; type: cell-based; settings: Rezeptur 4 nach Beispiel 5 on Melamin, 4 h
Source text: as §1, §2, §3
(§4) Der Bakterientest wurde in Anlehnung an ISO 22196 nach oben beschriebener Methode durchgeführt. Die Ergebnisse sind Tabelle 57a bis 57b dargestellt. Tabelle 57a: Photodynamische Wirkung verschiedener Katalysatoren in der SolGel Beschichtung gegen S.aureus

[4] = tested on: Bakterien; assay: Thermal ageing: bacteria test (ISO 22196) after accelerated ageing ASTM F1980-16 at 60°C for 4 weeks; type: cell-based; settings: 4 h, beschleunigte Alterung 60°C, Rezeptur 2 (Borsäure) on Melamin, 2 mM
Source text: as §1, §2, §3
Zur Beurteilung der Schicht auf Alterungsprozesse, wurde eine beschleunigte Alterung nach ASTM F1980-16 bei 60°C für 4 Wochen durchgeführt.
Der Bakterientest wurde in Anlehnung an ISO 22196 nach oben beschriebener Methode durchgeführt. Die Ergebnisse sind in der Tabelle 62 zusammengefasst. Tabelle 62: Mikrobiologische Wirksamkeit (log10 Reduktion) bei beschleunigter Alterung (60°C).

[5] = tested on: Bakterien; assay: Room light tests (Raumlichtversuche): antimicrobial efficacy at 10 µW/cm^2 for 24 h; type: cell-based; settings: Farbstoff 5 mM, coating Rezeptur 3, Beispiel 2a (2,5 eq aqueous boric acid, 50 mM)
Protocol: Um die antimikrobielle Wirksamkeit in einem realen Szenario abzuschätzen, wurden sogenannte Raumlichtversuche durchgeführt. Dazu wurden die mit Bakterien versetzten Probenträger mit einer, für Innenräume repräsentativen Lichtintensität von 10 µW/cm^2 für einen Zeitraum von 24 h bestrahlt.
Herstellung der Beschichtung erfolgte gemäß Beispiel 2a (2,5 eq wässrige Borsäure, 50 mM), mit Rezeptur 3. Die Ergebnisse sind in der Tabelle 63 zusammengefasst. Tabelle 63: Antimikrobielle Wirksamkeit bei Raumlichtbedingungen

[6] = tested on: S.aureus; type: cell-based; settings: for Log10 Reduktion Dunkelkontrolle 1 mM / Log10 Reduktion Dunkelkontrolle 2 mM: dark; for Log10 Reduktion Wirksamkeit 1 mM / Log10 Reduktion Wirksamkeit 2 mM: light
[7] = tested on: I. monocytoqenes; assay: Bacteria test following modified ISO 22196, photodynamic effect of different photocatalysts in the SolGel coating on I. monocytoqenes; type: cell-based; settings: Rezeptur 4 nach Beispiel 5 on Melamin; 4 h, dark
Source text: as §1, §2, §3, §4

[8] = tested on: Bakterien; assay: Photostability: bacteria test (ISO 22196) after simulated long-term illumination (18 mW/cm^2, 405 nm); type: cell-based; settings: 4 h, Rezeptur 2 (Borsäure) on Melamin, 2 mM
Source text: as §1, §2, §3
Zur Bewertung der Photostabilität des Farbstoffs S-25a (2 mM) in der Beschichtung wurden beschichtete Flächen mit 18 mW/cm^2 (405 nm, ca. 200 Fache Raumlichtintensität, Zeitrafferversuch) bestrahlt. So wurde eine Echtzeit-Photostabilität von 2 Jahren simuliert.
Der Bakterientest wurde in Anlehnung an ISO 22196 nach oben beschriebener Methode durchgeführt. Die Ergebnisse sind in der Tabelle 61 zusammengefasst. Tabelle 61: Mikrobiologische Wirksamkeit nach simulierter Photobelastung für 1, 2, 3, 6, 12 und 24 Monate

[9] = tested on: Bakterien; assay: Durability: bacteria test (ISO 22196) after immersion in Incidin Plus (10% in water) or isopropanol (70% in water); type: cell-based; settings: 4 h, Rezeptur 2 (Borsäure) on Melamin, 2 mM
Source text: as §1, §2, §3
Um die Haltbarkeit der Beschichtung bzw. das Auswaschen des Farbstoffs gegen gängige Reinigungs- und Desinfektionsmitteln, wurden damit Immersionstests in Incidin Plus (Ecolab GmbH, 10% in Wasser, Farbstoff S-25a) und Isopropanol (70% in Wasser) durchgeführt.
Der Bakterientest wurde in Anlehnung an ISO 22196 nach oben beschriebener Methode durchgeführt. Die Ergebnisse sind in den Tabellen 59 und 60 zusammengefasst. Tabelle 59: Mikrobiologische Wirksamkeit (Iog10 Reduktion) nach X h Immersion in Incidin Plus (10% in Wasser).

[10] = Rezeptur 2, Verdünnung mit IPA 1:2
[11] = Rezeptur 2, Verdünnung mit IPA 1:5
[12] = Rezeptur 2, Verdünnung mit IPA 1:8

CC(C)(O)c1cc[n+](CC2=Cc3cccc4cccc(c34)C2=O)cc1 [S-25a] was tested, and the log reduction at 2000 µM ([1]; Acinetobacter baumannii, ATCC15308, A. baumanii ATCC 15308 (Gram negativ), 300 µW/cm2, read-out: Log10 Reduktion Probe) was over 4, the log reduction at 2000 µM ([1]; Acinetobacter baumannii, ATCC15308, A. baumanii ATCC 15308 (Gram negativ), dark, read-out: Log10 Reduktion Dunkelkontrolle) was 0.1 and the log reduction at 2000 µM ([1]; Enterococcus faecium, E.faecium EDCC 5271 (Gram positiv), 300 µW/cm2, read-out: Log10 Reduktion Probe) was over 4. It also gave a log reduction at 2000 µM ([1]; Enterococcus faecium, E.faecium EDCC 5271 (Gram positiv), dark, read-out: Log10 Reduktion Dunkelkontrolle) of 0, a log reduction at 2000 µM ([1]; Staphylococcus aureus, ATCC6538, S.aureus ATCC 6538 (Gram positiv), 300 µW/cm2, read-out: Log10 Reduktion Probe) of over 4 and a log reduction at 2000 µM ([1]; Staphylococcus aureus, ATCC6538, S.aureus ATCC 6538 (Gram positiv), dark, read-out: Log10 Reduktion Dunkelkontrolle) of 0.1. It also gave a log reduction at 2000 µM ([2]; 83 min) of 5.5, a log reduction at 2000 µM ([2]; Influenza A virus, H1N1, 83 min) of 3.8 and a log reduction at 2000 µM ([2]; unidentified adenovirus, 83 min) of 2. The “S. enterica Log10 Reduktion Probe” value ([3]; 300 µW/cm2) was 2,5±0,4, the “S. enterica Log10 Reduktion Dunkelkontrolle” value ([3]; dark) was 0,0±0,1 and the log reduction at 2000 µM ([4]; 0 Wo, dark, read-out: Log10 Reduktion nach 0 Wo, Dunkelkontrolle) was 0.1. For the same compound, the log reduction at 2000 µM ([4]; 0 Wo, read-out: Log10 Reduktion nach 0 Wo, Probe) was 3.9, the log reduction at 2000 µM ([4]; 1 Wo, dark, read-out: Log10 Reduktion nach 1 Wo, Dunkelkontrolle) was 0 and the log reduction at 2000 µM ([4]; 1 Wo, read-out: Log10 Reduktion nach 1 Wo, Probe) was 3.8. For the same compound, the log reduction at 2000 µM ([4]; 2 Wo, dark, read-out: Log10 Reduktion nach 2 Wo, Dunkelkontrolle) was 0, the log reduction at 2000 µM ([4]; 2 Wo, read-out: Log10 Reduktion nach 2 Wo, Probe) was 3.4 and the log reduction at 2000 µM ([4]; 3 Wo, dark, read-out: Log10 Reduktion nach 3 Wo, Dunkelkontrolle) was 0.3. The log reduction at 2000 µM ([4]; 3 Wo, read-out: Log10 Reduktion nach 3 Wo, Probe) was 3.3, the log reduction at 2000 µM ([4]; 4 Wo, dark, read-out: Log10 Reduktion nach 4 Wo, Dunkelkontrolle) was 0.4 and the log reduction at 2000 µM ([4]; 4 Wo, read-out: Log10 Reduktion nach 4 Wo, Probe) was 2.8. For the same compound, the log reduction at 5000 µM ([5]; 24 h, dark control, read-out: Log10 Reduktion Dunkelkontrolle) was 1.1, the log reduction at 5000 µM ([5]; illuminated 10 µW/cm^2 for 24 h, read-out: Log10 Reduktion 24 h) was 2.6 and the “Log10 Reduktion Dunkelkontrolle 1 mM” value [6, 10] was 0,1±0,4. For the same compound, the “Log10 Reduktion Dunkelkontrolle 2 mM” value [6, 10] was 0,0±0,0, the “Log10 Reduktion Wirksamkeit 1 mM” value [6, 10] was 3,0±0,2 and the “Log10 Reduktion Wirksamkeit 2 mM” value [6, 10] was 3,3±0,5. For the same compound, the “Log10 Reduktion Dunkelkontrolle 1 mM” value [6, 11] was 0,0±0,2, the “Log10 Reduktion Dunkelkontrolle 2 mM” value [6, 11] was 0,1±0,1 and the “Log10 Reduktion Wirksamkeit 1 mM” value [6, 11] was 2,0±0,2. The “Log10 Reduktion Wirksamkeit 2 mM” value [6, 11] was 2,8±0,2, the “Log10 Reduktion Dunkelkontrolle 1 mM” value [6, 12] was 0,0±0,2 and the “Log10 Reduktion Dunkelkontrolle 2 mM” value [6, 12] was 0,0±0,1. The “Log10 Reduktion Wirksamkeit 1 mM” value [6, 12] was 1,5±0,1, the “Log10 Reduktion Wirksamkeit 2 mM” value [6, 12] was 2,7±0,6 and the “I. monocytoqenes Log10 Reduktion Dunkelkontrolle” value [7] was 0,0±0,1. It also gave a log reduction at 2000 µM ([8]; 2 Monate simulated, dark, read-out: Log10 Reduktion nach x Monaten simulierter Belastung: 2, Dunkelkontrolle) of 0.2, a log reduction at 2000 µM ([8]; 3 Monate simulated, dark, read-out: Log10 Reduktion nach x Monaten simulierter Belastung: 3, Dunkelkontrolle) of 0.2 and a log reduction at 2000 µM ([8]; 24 Monate simulated, dark, read-out: Log10 Reduktion nach x Monaten simulierter Belastung: 24, Dunkelkontrolle) of 0.2. For the same compound, the log reduction at 2000 µM ([8]; pre-illumination 18 mW/cm^2, 405 nm, 0 Monate, read-out: Log10 Reduktion nach x Monaten simulierter Belastung: Start (0), Probe) was 4.7, the log reduction at 2000 µM ([8]; pre-illumination 18 mW/cm^2, 405 nm, 1 Monat simulated, read-out: Log10 Reduktion nach x Monaten simulierter Belastung: 1, Probe) was 4.6 and the log reduction at 2000 µM ([8]; pre-illumination 18 mW/cm^2, 405 nm, 2 Monate simulated, read-out: Log10 Reduktion nach x Monaten simulierter Belastung: 2, Probe) was 4.3. The log reduction at 2000 µM ([8]; pre-illumination 18 mW/cm^2, 405 nm, 3 Monate simulated, read-out: Log10 Reduktion nach x Monaten simulierter Belastung: 3, Probe) was 4.2, the log reduction at 2000 µM ([8]; pre-illumination 18 mW/cm^2, 405 nm, 6 Monate simulated, read-out: Log10 Reduktion nach x Monaten simulierter Belastung: 6, Probe) was 4.3 and the log reduction at 2000 µM ([8]; pre-illumination 18 mW/cm^2, 405 nm, 12 Monate simulated, read-out: Log10 Reduktion nach x Monaten simulierter Belastung: 12, Probe) was 4.3. The log reduction at 2000 µM ([8]; pre-illumination 18 mW/cm^2, 405 nm, 24 Monate simulated, read-out: Log10 Reduktion nach x Monaten simulierter Belastung: 24, Probe) was 4.3, the log reduction at 2000 µM ([9]; Immersion in Incidin Plus (10% in Wasser) 0 h, read-out: Log10 Reduktion nach 0 h, Probe) was 3.7 and the log reduction at 2000 µM ([9]; Immersion in Incidin Plus (10% in Wasser) 1 h, dark, read-out: Log10 Reduktion nach 1 h, Dunkelkontrolle) was 0.8. It also gave a log reduction at 2000 µM ([9]; Immersion in Incidin Plus (10% in Wasser) 1 h, read-out: Log10 Reduktion nach 1 h, Probe) of 2.6, a log reduction at 2000 µM ([9]; Immersion in Incidin Plus (10% in Wasser) 2 h, read-out: Log10 Reduktion nach 2 h, Probe) of 2.4 and a log reduction at 2000 µM ([9]; Immersion in Incidin Plus (10% in Wasser) 3 h, read-out: Log10 Reduktion nach 3 h, Probe) of 1.4.
